Test results: US10702526B2, “Inhibitors of immune checkpoint modulators and related methods” (eFFECTOR Therapeutics, Inc., priority 2015, dated 2020)
Entries after “also recorded” stand apart in the source; their conditions may differ.

Tests used:
[1] = test system: IL-2 production in Jurkat T cells; assay: IL-2 ELISA on supernatants of activated Jurkat T cells; format: cell-based, human; settings: Jurkat T cells with PHA and PMA, 48 hours
Method: To examine the effect of MNK-specific inhibitors on PD-1 expression, Jurkat cells (Clone E6.1, ATCC, transformed T cells) were used, which express PD-1 when activated through T cell receptor (TCR) signaling. Briefly, Jurkat cells were grown in 1×RPMI with 1× Pen/Strep, and 10% FBS, then about 3×10^6 Jurkat cells were activated in presence of 1 μg/mL PHA (Sigma) and 50 ng/mL PMA (Sigma). Test Cells were treated simultaneously with various concentrations of MNK-specific inhibitor Compound 107 (0, 0.01, 0.1, 1, 3 and 10 μM). After 48 hours, culture supernatants were harvested and examined via sandwich ELISA for the presence of IL-2 using human IL-2 ELISA DuoSet® (R&D Systems, Minneapolis, Minn.). […] After fixation, cells were washed twice with flow buffer and re-suspended in flow buffer and assessed for fluorescence using BD Accuri C6 flow cytometer. Data were analyzed using the C6 cytometer software (BD Biosciences, San Jose, Calif.).

Jurkat cells = assay: Jurkat T cell viability (fixable dead cell stain); format: cell-based
Method: To examine the effect of MNK-specific inhibitors on PD-1 expression, Jurkat cells (Clone E6.1, ATCC, transformed T cells) were used, which express PD-1 when activated through T cell receptor (TCR) signaling. Briefly, Jurkat cells were grown in 1×RPMI with 1× Pen/Strep, and 10% FBS, then about 3×10^6 Jurkat cells were activated in presence of 1 μg/mL PHA (Sigma) and 50 ng/mL PMA (Sigma). Test Cells were treated simultaneously with various concentrations of MNK-specific inhibitor Compound 107 (0, 0.01, 0.1, 1, 3 and 10 μM). After 48 hours, culture supernatants were harvested and examined via sandwich ELISA for the presence of IL-2 using human IL-2 ELISA DuoSet® (R&D Systems, Minneapolis, Minn.). The level of PD-1 on Jurkat cells was examined by incubating cells with fixable dead cell stain (1:20,000; BD Biosciences, San Jose, Calif.) for 15 minutes at 4° C., washed twice with flow staining buffer (1×PBS, 4% FBS and 1 mM EDTA), incubated with human FcR block, then contacted with allophycocyanin (APC) conjugated anti-PD-1 antibody (Biolegend, San Diego, Calif.) for 30 minutes at 4° C., washed two times with flow buffer, and finally cells were fixed with fixation buffer for 20 minutes at 4° C. After fixation, cells were washed twice with flow buffer and re-suspended in flow buffer and assessed for fluorescence using BD Accuri C6 flow cytometer. Data were analyzed using the C6 cytometer software (BD Biosciences, San Jose, Calif.).

PD-L1 = PD-L1 expression in tumor cell lines (Western blot); format: cell-based, human; settings: MDA-MB-231, HBL-1, A549, MDA-MB-361, AMO-1; 0.01-10 μM, 48 hours, vs DMSO
[2] = test system: PD-1 expression on human Pan-T cells; assay: PD-1 expression on primary T cells activated with anti-CD3/anti-CD28 beads (flow cytometry); format: cell-based
Method: (§1) About 3×10^5 T cells were activated using anti-CD3/anti-CD28 magnetic beads as per manufacturer's protocol (Dynabeads®, Invitrogen, Carlsbad, Calif.). Briefly, a ratio of fresh primary T cells to beads used to activate the T cells was 1:1 (for every 80,000 T cells, 2 μl of beads were added). Test cells were treated simultaneously with various concentrations of MNK-specific inhibitor Compound 107 (0.01, 0.1, 1, 3 and 10 μM). After 48 hours, culture supernatants were harvested and examined via sandwich ELISA for the presence of IL-2 using human IL-2 ELISA DuoSet® (R&D Systems, Minneapolis, Minn.). […] After fixation, cells were washed twice with flow buffer and re-suspended in flow buffer and assessed for fluorescence using BD Accuri C6 cytometer. Data were analyzed using the C6 cytometer software (BD Biosciences, San Jose, Calif.).

[3] = test system: LAG3 expression on human Pan-T cells; assay: LAG3 expression on primary T cells activated with anti-CD3/anti-CD28 beads (flow cytometry); format: cell-based
Method: as §1

primary T cells = assay: Primary T cell viability (fixable dead cell stain); format: cell-based; settings: T cells activated with anti-CD3/anti-CD28 beads
Method: as §1

[4] = test system: IL-10 production in primary T cells; assay: IL-10 production by activated primary T cells; format: cell-based, human
[5] = test system: HLA class II protein HLA-DQA1; assay: HLA-DQA1 protein level in TMD8 cells (Western blot); format: cell-based, human
Method: (§2) The ability of MNK-specific inhibitor compounds to regulate the level of HLA class II proteins was evaluated in a diffuse large B-cell lymphoma (DLBCL) cell line, TMD8. Briefly, human DLBCL cell line TMD8 (ATCC), was cultured in RPMI media supplemented with penicillin G (100 U/ml), streptomycin (100 μg/ml), and 10% FBS in a humidified atmosphere of 5% CO2 maintained at 37° C. About 2-4×10^6 TMD8 cells were seeded in 10 cm plates 24 hours prior to drug treatment. The following day, cells were treated with either vehicle control (DMSO) or Compound 107 at the indicated concentration (FIG. 7). Cells were harvested 48 hours post-treatment.
(§3) Treated cells were harvested, washed with PBS and lysed in 1×RIPA buffer (Thermo Fisher) for 15 minutes at 4° C. Lysates were clarified by centrifugation for 15 min at 14,000×rpm and supernatants were collected. Protein concentration in the soluble fraction was determined using the BCA protein assay (Thermo Scientific). Proteins were resolved on 4-20% Bis-Tris gradient polyacrylamide gel (Invitrogen) and transferred to nitrocellulose membrane. […] The blots were washed, scanned, and specific proteins detected using the LI-COR Odyssey infrared imager. […]

phospho-eIF4E = assay: eIF4E phosphorylation in TMD8 cells (Western blot); format: cell-based, human
Method: as §2, §3

[6] = primary T cells, anti-CD3/anti-CD28 beads, 0.01-10 μM

Cc1cc(Nc2cc(N)ncn2)c(=O)n2c1C(=O)NC21CCCCC1.Cl [Compound 107]
IL-2 production [1]: did not alter cytokine production; also recorded: did not detectably alter IL-2 production | Cell Death (Jurkat cells; Jurkat T cell assay, MNK-specific inhibitors): − (− = 0-10%) | cell viability (percentage of dead cells) (Jurkat cells; Jurkat cells with PHA and PMA): no effect on cell viability; also recorded: unaffected | expression of PD-L1 (PD-L1): reduced in a dose dependent manner | maximum inhibition of PD-1 expression ([2]; T cells activated with anti-CD3/anti-CD28 beads, 10 μM, 48 hours): 76% | PD-1 expression [2, 6]: reduced in a dose dependent manner | reduction in the expression of LAG3 ([3]; CD3/CD28 antibody bead activated T cells, 10 μM): 62% | LAG3 expression [3, 6]: reduced in a dose dependent manner | T cell viability (percentage of dead cells) (primary T cells): no effect on T cell viability; also recorded: unaffected | % IL-10 Inhibition [4]: ++++ (++++ = 75-100%) | expression/production of IL-10 [4]: inhibited | inhibition at 10 µM ([4]; Homo sapiens, T-cell, 10 μM, read-out: maximum inhibition of the production of IL-10): 96% | EC50 ([5]; Homo sapiens, TMD8, 48 h, read-out: EC50 of increase in HLA-DQA1 protein level): ~300 nM | HLA-DQA1 protein level ([5]; TMD8 cells, 48 hours, 300 nM or 10 μM): dose dependent increase | phosphorylation of eIF4E (phospho-eIF4E): potently inhibited
